The values below come from PubChem BioAssay (NCI).

What all share (experiment): NCI-60 cell line screen, 48 h
Experiment [1] concerns A549 NSCLC.
In experiment [2] the test system is KM20L2 colon.
The subject of experiment [3] is NCI-H226 lung.
Experiment [4] has as its system RPMI-8226 leukemia.
The subject of experiment [5] is SF-268 CNS.
The subject of experiment [6] is SK-MEL-28 melanoma.
The subject of experiment [7] is XF 498 CNS.
For experiment [8], the system named is A498 renal.
Experiment [9] concerns BT-549 breast.
The test system of experiment [10] is MDA-MB-435.

Where “and” joins values, the source holds several entries; their conditions need not be identical. Identical values can stand only once.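 The compound was tested at five concentrations on cells cultured in 96-well plates, with a 48-hour exposure period. Here, GI50 denotes the concentration required for 50% inhibition of growth. TGI denotes the concentration required for complete inhibition of growth.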

`O=C(NCCCCN=c1cccccc1NCCCCNC(=O)OCc1ccccc1)OCc1ccccc1`: the TGI in experiment [1] was 74.6 µM; in experiment [2], 26.1 µM; in experiment [3] it was 32.1 µM; in experiment [4], 32.8 µM; in experiment [5] it was 63.8 µM; in experiment [6], 39.6 µM. For the same compound, in [7], the TGI was found to be 18.6 µM.

With `CCOC(=O)C1(c2ccccc2)CCC(=O)CC1`, the TGI in [8], in [1], in experiment [2], in experiment [3], in experiment [5] and in experiment [6] was greater than 100 µM throughout.

Turning to `CN(C)c1c([O-])c(=[N+](C)C)c1=O`, the TGI in experiment [8], in [1], in [3], in experiment [5], in experiment [6] and in experiment [7] was greater than 100 µM throughout.

Turning to `CC[C@@]12N=C(N(C)C)C[C@]1(O)ON=C2C`, the TGI in experiment [8], in [1], in [2], in experiment [3], in experiment [4] and in experiment [5] was greater than 100 µM throughout. Besides, the TGI in experiment [6] and in [7] was greater than 100 µM in each case.

For `O=C(O)CSc1n[nH]c(-c2ccccc2)n1`, the TGI in experiment [8], in experiment [1], in experiment [2], in [3], in experiment [4] and in experiment [5] was greater than 100 µM in each case. Also, the TGI in experiment [6] and in experiment [7] was greater than 100 µM throughout.

As for `O=c1[nH]cc(COCCO)c(=O)[nH]1`, the TGI in experiment [8], in experiment [1], in experiment [2], in [3], in experiment [4] and in experiment [5] was greater than 100 µM each time. Besides, the TGI in experiment [6] and in experiment [7] was greater than 100 µM in each case.

Take `O=C1c2ccccc2C2(O)c3cc4ccccc4cc3OC12O` (stereo unspecified): the TGI in experiment [8], in [1], in experiment [2], in [3], in experiment [4] and in [5] was greater than 100 µM in each case. Besides, the TGI in experiment [6] is greater than 100 µM.

In the case of `Cc1ccc(NC(=O)C2C(=O)N(c3ccc(C)c(C)c3)C(=O)C2N=N)cc1C` (stereo unspecified), the TGI in experiment [8], in [1], in experiment [2], in [3], in experiment [5] and in experiment [6] was greater than 100 µM each time. The TGI in experiment [7] is greater than 100 µM.

With `O=C(Nc1cc(Cl)ccc1Cl)c1cc2cccc(Cl)c2oc1=O`, the TGI in experiment [1], in experiment [2], in experiment [4], in experiment [6] and in [7] was greater than 100 µM throughout.

Turning to `O=C(CSc1nnc(-c2ccc(N=Cc3ccc(Cl)cc3)cc2)o1)Nc1ccc(Cl)cc1`, the TGI in experiment [1], in experiment [2], in [3], in experiment [4], in experiment [5] and in [6] was greater than 100 µM in each case. Moreover, the TGI in [7] was greater than 100 µM.

Consider `CC(=O)n1c2c(c(=O)n1-c1ccccc1)S(=O)CCC2` (stereo unspecified), for which the TGI in experiment [8] was greater than 100 µM; in [1] it was greater than 100 µM; in [2], greater than 100 µM; in experiment [3], greater than 100 µM; in experiment [4], 27.9 µM; in experiment [5] it was greater than 100 µM. The TGI in experiment [6] and in [7] was greater than 100 µM throughout.

Regarding `CCc1c(OC(C)=O)c2c(NC3OC(COC(C)=O)C(OC(C)=O)C(OC(C)=O)C3OC(C)=O)nc(OC)nc2oc1=O` (stereo unspecified), the TGI in [8], in experiment [1], in experiment [2], in experiment [3], in [4] and in [7] was greater than 100 µM each time.

As for `CCCCCCC[CH2][Sn]1([CH2]CCCCCCC)[O]C(=O)c2cccnc2[S]1`, the GI50 in experiment [8], in experiment [1], in experiment [2], in experiment [3], in experiment [4] and in [6] was greater than 100 µM in each case. The GI50 in [7] was 30.8 µM. Moreover, the TGI in [8], in [1], in experiment [2], in experiment [3], in [4] and in experiment [6] was greater than 100 µM in each case. This compound showed a TGI in experiment [7] greater than 100 µM.

For the compound `O=[N+]([O-])c1ccc(-n2nnc(C3=NCCN3)c2-c2ccc(Cl)cc2)cc1`, the TGI in experiment [8], in experiment [1], in [2], in [3], in [4] and in experiment [5] was greater than 100 µM each time. Further, the TGI in experiment [6] and in experiment [7] was greater than 100 µM each time.

With `COc1ccc2oc(-c3cccnc3)cc(=O)c2c1`, the TGI in experiment [8], in experiment [3], in experiment [4], in experiment [5], in experiment [6] and in [7] was greater than 100 µM throughout.

In the case of `CCOc1ccc2c(c1)[n+]([O-])c(-c1ccccc1Cl)c(N)[n+]2[O-]`, the TGI in [8], in experiment [1], in experiment [2], in [3], in experiment [5] and in experiment [6] was greater than 100 µM throughout. Also, in experiment [7], the TGI was greater than 100 µM.

`CCC1C2C=CC(CC2)N1S(=O)(=O)c1ccc(C)cc1` (stereo unspecified): the TGI was greater than 100 µM in experiment [8]; greater than 100 µM in [1]; 38.2 µM in experiment [2]; 33.9 µM in [3]; 42.3 µM in experiment [4]; 67.3 µM in [5].

For `O=C(O)[C@H](NS(=O)(=O)c1ccc2ccccc2c1)c1ccccc1`, the TGI in experiment [8], in experiment [2], in experiment [4], in [5], in experiment [6] and in experiment [7] was greater than 100 µM throughout.

Turning to `c1ccc(SC2CCSc3ccccc3C2Sc2ccccc2)cc1` (stereo unspecified), the TGI in experiment [8], in experiment [1], in experiment [2], in [3], in experiment [4] and in experiment [5] was greater than 100 µM throughout. In addition, the TGI in experiment [7] is greater than 100 µM.

Consider `COc1ccc(/C(=N\NC(=O)C(N)=O)C(c2ccc(OC)cc2)C2(O)C(=O)Nc3c(Cl)cccc32)cc1` (stereo unspecified), for which the TGI in experiment [1], in experiment [2], in experiment [3], in [4], in [5] and in experiment [6] was greater than 100 µM each time. The compound also had a TGI in [7] greater than 100 µM.

Consider `CC1=C2CCCC2=C/C(=N/Nc2ccc([N+](=O)[O-])cc2[N+](=O)[O-])CC1`, for which the TGI in experiment [1], in [2], in experiment [3], in experiment [4], in [5] and in [6] was greater than 100 µM each time. Further, the TGI in experiment [7] is greater than 100 µM.

For `O=c1n(-c2ccccc2)c(=O)n2n1C1C=CC2C2C(C1)C2(Cl)Cl` (stereo unspecified), the TGI in experiment [8], in experiment [1], in [2], in experiment [3], in experiment [5] and in experiment [7] was greater than 100 µM each time.

For `O=C1CC(C[C@H](O)C2CCCCC2O)CC(=O)N1Cc1ccccc1` (stereo partly specified), the TGI in [8], in [1], in experiment [2], in experiment [3], in experiment [5] and in [6] was greater than 100 µM in each case. Further, the TGI in [7] was greater than 100 µM.

In the case of `COc1ccc(-c2cc(-c3ccccc3)c(C#N)c(=O)n2C2OC(CO)C(O)C(O)C2O)cc1` (stereo unspecified), the TGI in [8], in [1], in experiment [2], in [3], in [4] and in [5] was greater than 100 µM each time. Moreover, in experiment [6], the TGI is greater than 100 µM.

Consider `C[C@H]1NC(=O)C2CCCCN2C(=O)CN(C)C(=O)CNC(=O)C2CCCCN2C(=O)[C@@H](NC(=O)c2nc3ccccc3cc2O)[C@@H](C)NC(=O)C2CCCCN2C(=O)CN(C)C(=O)CNC(=O)[C@@H]2CCCCN2C(=O)C1NC(=O)c1nc2ccccc2cc1O` (stereo partly specified), for which the TGI in [1] is greater than 100 µM; in experiment [2], 10.4 µM; in experiment [3], 0.383 µM; in experiment [4], 0.764 µM; in experiment [5], 0.934 µM; in experiment [6], 0.465 µM.

As to `COc1cc(-c2nn(-c3cccc(NC(=O)Nc4ccc(Cl)c(Cl)c4)c3)cc2-c2ccncc2)ccc1Cl`, the GI50 in experiment [8] is 1.14 µM; in experiment [1], 0.745 µM; in experiment [9], 1.68 µM; in experiment [10], 0.938 µM; in experiment [3], 1.35 µM; in experiment [4], 0.388 µM. Further, the GI50 in experiment [5] is 1.51 µM; in experiment [6], 1.43 µM. The TGI in experiment [8] was 4.59 µM; in experiment [1], greater than 50 µM; in [9] it was 27.6 µM; in experiment [10] it was 2.39 µM; in [3], greater than 50 µM; in experiment [4] it was 3.26 µM. Besides, the TGI worked out at 20.3 µM in experiment [5] and 7.32 µM in experiment [6].

As to `N#C/C=C(\c1ccc([N+](=O)[O-])cc1)n1nnc2cc(Cl)c(Cl)cc21`, the GI50 was 1.74 µM in experiment [8]; 3.45 µM in [1]; 1.77 µM in experiment [9]; 1.75 µM in experiment [10]; 3 µM in experiment [3]; 0.604 µM in experiment [4]. The GI50 in [5] is 3.58 µM; in [6], 2.08 µM. Moreover, the TGI was 3.43 µM in experiment [8]; 13.6 µM in [1]; 3.77 µM in experiment [9]; 3.7 µM in experiment [10]; 17.1 µM in experiment [3]; 2.91 µM in experiment [4]. Further, the TGI in experiment [5] came out at 33.5 µM; in experiment [6], 4.23 µM.

Consider `O=C(c1ccc(F)c(F)c1Nc1ccc(I)cc1F)N1CC(O)([C@@H]2CCCCN2)C1`, for which the GI50 in experiment [8] is < 0.0194 µM and 0.0422 µM; in experiment [1], 0.25 µM and 0.48 µM; in experiment [9] it was 7.52 µM and > 6.99 µM; in experiment [10], < 0.01 µM and 0.00943 µM; in experiment [3] it was 1.91 µM and 1.24 µM; in [4], 0.992 µM and 3.1 µM. Further, the GI50 is 5.02 µM and 4.94 µM in experiment [5]; less than 0.01 µM in experiment [6]. In addition, the TGI was 0.134 µM and 0.294 µM in [8]; 17 µM and > 10 µM in [1]; 22 µM and > 10 µM in experiment [9]; 15.1 µM and > 10 µM in experiment [10]; 23.3 µM and > 10 µM in [3]; 18.2 µM and > 10 µM in experiment [4]. In addition, the TGI in experiment [5] is 20.6 µM and > 10 µM; in experiment [6] it was 0.594 µM.

As for `C=CC(=O)N1CCC(C2CCNc3c(C(N)=O)c(-c4ccc(Oc5ccccc5)cc4)nn32)CC1` (stereo unspecified), the GI50 is 2.33 µM in experiment [8]; 21.2 µM in experiment [1]; 12.9 µM in experiment [9]; 13.4 µM in experiment [10]; 11.1 µM in [3]; 12.4 µM in experiment [4]. The GI50 is 6.98 µM in [5] and 18.7 µM in [6]. The TGI in [8] is 7.19 µM; in experiment [1], greater than 100 µM; in experiment [9] it was 52.4 µM; in [10] it was 38 µM; in experiment [3], 69.4 µM; in experiment [4] it was 39.5 µM. Also, the TGI in [5] was found to be 45 µM; in experiment [6] it was 45.1 µM.

On to `COc1c(OC)c(OC)c(C(=O)/C=C/c2ccccc2)c(OC)c1OC`, for which the TGI in [8] worked out at 17.5 µM; in [1] it was 46.2 µM; in experiment [9], 18.1 µM; in [10], 19.7 µM; in [3], 38.4 µM; in experiment [4], 20.3 µM. In addition, the results for the TGI in [5] and in experiment [6] were 22.1 µM and 27.3 µM, respectively.

Regarding `COc1ccc(NC(=O)/C(N=O)=C(/C)O)cc1`, the TGI in experiment [8], in experiment [1], in experiment [2], in experiment [3], in experiment [4] and in experiment [5] was greater than 100 µM each time. For the same compound, the TGI in experiment [6] was greater than 100 µM.
